Laboratory results as given in patent publication US20060188909A1, “Business methods for assessing nucleic acids” (Medical College of Ohio, priority 2005, published 2006).

Columns and labels:
[1] = test system: cytochrome p450 IA1 (CYPIAI) gene expression; test: Northern analysis of CYPIAI induction in BEP2D cells; assay type: cell-based, human; settings: 10 μM, varying times, vs 0.1% DMSO control
Method: (§1) In a second set of experiments, multiplex competitive reverse transcriptase polymerase chain reaction (MC RT-PCR) with competitive templates were prepared by the Celi method to evaluate the cytochrome p450 (CYP) IAI gene in β-napthoflavone-exposed BEP2D cells. The induction of CYPIAI gene expression was evaluated using both MC RT-PCR with Celi competitive templates, and Northern analysis. Competitive templates were prepared for both the CYPIAI and GAPDH genes. The primers used to prepare the competitive template for GAPDH were: […]
RNA from BEP2D cells incubated for varying times with […] (10 μM) was either electrophoresed on a 1% LE formaldehyde denaturing gel for Northern analysis or MC RT-PCR amplified, as described above. For Northern analysis, following transfer of the RNA to GeneScreen, the filters were hybridized with ^32P-labeled CYPIAI cDNA.
FIG. 36A illustrates Northern analysis of RNA obtained from BEP2D cells that were treated with 0.1% DMSO as a control, or, β-napthoflavone in an effort to induce cytochrome p450 IA1 (CYPIAI). FIG. 36B illustrates DNA PCR-amplified from serial dilutions of cDNA from the same cells used in FIG. 36SA. The cDNA was co-amplified in the presence of competitive templates for GAPDH and CYPIAI, according to some embodiments of the instant invention.

[2] = test system: cytochrome p450 IA1 (CYPIAI) gene expression; test: MC RT-PCR with Celi competitive templates, CYPIAI induction in BEP2D cells; assay type: cell-based, human; settings: 10 μM, exposed vs control cells, about the same cDNA loaded
Method: as §1
The PCR amplification conditions were the same as described for experiments using the competitive templates prepared for GAPDH and GSHPx by the Higuchi method except the annealing temperature was 55 degrees centigrade and the amplification was carried out for 38 cycles.
Because the native and competitive templates separate without prior restriction endonuclease digestion, samples were taken directly from the PCR reaction tube and applied to ethidium bromide stained 3% Nusieve, 1% LE agarose gels. It was then possible to quantify the products by taking a negative photograph of the gel using Polaroid 665 positive/negative instant film, subjecting the negative photograph to densitometry. […]

Structure (SMILES): O=c1cc(-c2ccccc2)oc2ccc3ccccc3c12 [β-napthoflavone]
- gene expression of the CYPIAI gene (Northern analysis) [1]: increase
- band representing the native CYPIAI gene (MC RT-PCR, GAPDH reference) [2]: much more strongly represented
